One assay has as its system HCT116 cells. Nature of the assay: Growth inhibitory activity on HCT116 cell (CellTiter-Glo). It counts as cell-based. The note with it: Homo sapiens, HCT-116, 72 h; test compound 1 μM, 3 days; read-out: HCT116 cell proliferation inhibitory rate (%) at 1 μM. On the procedure: The growth inhibitory activity of the compound on HCT116 cell was evaluated by the following method.
HCT116 cells were seeded in a 384 well blackplate at 900 cells/[…]/well, and maintained in an assay medium (RPMI medium (Wako) containing 2% fetal bovine serum, 50 Unit/mL penicillin and […] streptomycin (Invitrogen)). The next day, a test compound dissolved in dimethyl sulfoxide (DMSO) was diluted with the assay medium, and the obtained compound solution was added by […] to each well of a plate containing HCT116 cells, and incubated at 37° C., 5% CO2 (test compound addition group).
A similar reaction was performed without adding a test compound (test compound non-addition group).
Furthermore, a similar reaction was performed under the conditions without adding HCT116 cell and a test compound (control group).
After 3 days, […] of a CellTiter-Glo reagent (Promega KK) was added to the well, and the mixture was stirred for 10 min. Thereafter, the luminescence value of each well was measured by the EnVision™ multilabel counter (Perkin Elmer Inc.).
The HCT116 cell proliferation inhibitory rate (%) of the test compound was determined by the following calculation formula. (1−(luminescence of test compound addition group−luminescence of control group)÷(luminescence of test compound non-addition group−luminescence of control group))×100
The HCT116 cell proliferation inhibitory rates (%) of the test compound (1 μM) are shown below.
(In ATP-based viability assays light output follows the ATP content of the culture.)

The target of a further assay is T1, Human ACC1 (Homo sapiens, UniProt Q13085).
T1 construct: His6 (from vector pFAST-BacHTc; purified on Ni-NTA) (N); made in house; host or cells: SF-9 insect cells, recombinant baculovirus BAC-ACC1
The experiment in a line: Measurement of ACC1 inhibitory activity (Malonyl-CoA produced, RapidFire-mass spectrometry). The format is biochemical. The conditions noted are these: 10 μM of the test compound; read-out: ACC1 inhibitory rate (%) at 10 μM. How it is done: (1) Cloning of Human ACC1 Gene and Preparation of Recombinant Baculovirus
Human ACC1 gene was cloned by PCR using a human liver cDNA library (Clontech) as a template and Primer 1 and Primer 2 shown below. Primer 1 and Primer 2 were prepared by adding SalI, NotI restriction enzyme recognition sequences based on the information of the base sequence of human ACC1 gene (Genbank Accession U19822).
PCR was performed using Pyrobest DNA polymerase (TAKARA BIO INC.). The obtained PCR product was cloned to pT7 Blue vector (Novagen) and after confirmation of the base sequence, digested with restriction enzymes SalI and […]. The obtained DNA fragment was inserted into pFAST-BacHTc (Invitrogen) digested with restriction enzymes SalI and […] to give expression plasmid ACC1/pFAST-BacHTc.
Using the expression plasmid ACC1/pFAST-BacHTc and BAC-TO-BAC Baculovirus Expression System (Invitrogen), virus stock BAC-ACC1 of recombinant Baculovirus was prepared.
(2) Preparation of ACC1 Protein
SF-9 cells (Invitrogen) were inoculated to a medium (10 L) for insect cells (Sf-900IISFM medium (Invitrogen) containing 5% fetal bovine serum (Trace), 50 mg/L Gentamicin (Wako Pure Chemical Industries, Ltd.) and 0.1% Pluronic F-68 (Invitrogen)) at 1.0×10^6 cells/mL, and cultured with shaking in Wave Bioreactor (GE Healthcare) at 27° C., 20 rpm, rocking angle 100, oxygen concentration 30%.
On day 2 of the culture, recombinant Baculovirus BAC-ACC1 was added, and the cells were cultured for 3 days. The culture medium was centrifuged at 4000×g for 10 min to give virus-infected cells. The cells were washed with phosphate buffered saline (Invitrogen) and centrifuged under the same conditions. The obtained cells were cryopreserved at −80° C.
The cryopreserved cells were thawed in ice, and suspended in 800 mL of 25 mM HEPES buffer (pH 7.5) containing 10% Glycerol, 0.3 M NaCl, 1 mM EDTA, 25 mM Sodium β-Glycerophosphate and 1 mM Sodium Orthovanadate, and supplemented with Complete Protease Inhibitor (Roche). The obtained suspension was homogenized two times in a polytron homogenizer (Kinematica) at 20,000 rpm for 20 sec. The obtained cell disruption solution was clarified by centrifugation at 186,000×g for 60 min, and the supernatant was passed through Ni-NTA Superflow Cartridges (5 mL) (QUIAGEN). Furthermore, it was washed with 25 mM HEPES buffer (pH 7.5) containing 20 mM Imidazole and 0.3 M NaCl, and eluted with 25 mM HEPES buffer (pH 7.5) containing 250 mM Imidazol and 0.3 M NaCl. The eluate was concentrated by Amicon Ultra-15 (Nihon Millipore K.K.) having a fraction molecular weight of 50K. The obtained concentrate was subjected to gel filtration with 50 mM HEPES buffer (pH 7.5) containing 10 mM MgCl2, 2 mM dithiothreitol, 10 mM tripotassium citrate and 0.3 M NaCl by using HiLoad 26/60 Superdex200 prep grade gel filtration column (GE Healthcare) to give ACC1. The obtained ACC1 was cryopreserved at −80° C.
(3) Measurement of ACC1 Inhibitory Activity
ACC1 obtained in the above-mentioned (2) was diluted with an enzyme reaction buffer (50 mM HEPES (pH 7.5), 10 mM MgCl2, 10 mM Tripottasium Citrate, 2 mM Dithiothreitol, 0.001% Fatty acid free BSA) to a concentration of 0.2 μg/ml, and the mixture was added to each well of a 384 well assay plate by 10 μl. A test compound dissolved in dimethyl sulfoxide (DMSO) was diluted with an enzyme reaction buffer, and the resulting solution (5 μl) was added to each well. The mixture was incubated at room temperature for 60 min. Then, a substrate solution (50 mM KHCO3, 200 μM ATP, 200 μM Acetyl-CoA, 5 μl) was added to each well, and the mixture was reacted at room temperature for 30 min. The reaction was quenched by adding a reaction quenching liquid (1.3% formic acid, 0.2 μM Malonyl-^13C3-CoA) by 60 μL each to the obtained reaction mixtures (test compound addition group).
In addition, a reaction was performed in the same manner as above and without adding the test compound (test compound non-addition group). […]

With `CC(=O)NC(C)c1ccc(OCc2ccc(Oc3cccc(OCC4CC4)c3)cc2F)cc1` (centres unmarked) [Example 19, N-(1-(4-((4-(3-(cyclopropylmethoxy)phenoxy)-2-fluorobenzyl)oxy)phenyl)ethyl)acetamide], the inhibition at 1 µM with HCT116 cells was 15%. The inhibition at 10 µM at Human ACC1 was 83%. Taken in the same sequence, the figures for `CC(=O)N[C@@H](C)COc1cnc(-c2ccc(Oc3cccc(OCC4CC4)c3)cc2)o1` [Example 30, N-((2S)-1-((2-(4-(3-(cyclopropylmethoxy)phenoxy)phenyl)-1,3-oxazol-5-yl)oxy)propan-2-yl)acetamide] were 28% and 99%. Taken in the same sequence, the figures for `CC(=O)NC(C)CCc1cnc(-c2ccc(Oc3cccc(OCC4CC4)c3)cc2)o1` (centres unmarked) [Example 32, N-(4-(2-(4-(3-(cyclopropylmethoxy)phenoxy)phenyl)-1,3-oxazol-5-yl)butan-2-yl)acetamide] were 30% and 97%. Regarding `CC(=O)NC(C)c1cnc(OCc2ccc(Oc3cccc(OCC4CC4)c3)cc2F)cn1` (centres unmarked) [Example 35, N-(1-(5-((4-(3-(cyclopropylmethoxy)phenoxy)-2-fluorobenzyl)oxy)pyrazin-2-yl)ethyl)acetamide], at Human ACC1, the inhibition at 10 µM came out at 78%. With `CC(=O)NC(C)c1ccc(OCc2c(F)cc(Oc3cccc(OCC4CC4)c3)cc2F)cc1` (centres unmarked) [Example 39, N-(1-(4-((4-(3-(cyclopropylmethoxy)phenoxy)-2,6-difluorobenzyl)oxy)phenyl)ethyl)acetamide], the inhibition at 1 µM in the assay with HCT116 cells is 26%. Besides, the inhibition at 10 µM at Human ACC1 was 82%.

For the compound `CC(=O)NC(C)c1ccc(OCc2ccc(Oc3cccc(OCC4CC4)c3)cc2F)nc1` (centres unmarked) [Example 42, N-(1-(6-((4-(3-(cyclopropylmethoxy)phenoxy)-2-fluorobenzyl)oxy)pyridin-3-yl)ethyl)acetamide], in the assay on HCT116 cells, the inhibition at 1 µM was determined as 10%. In addition, the inhibition at 10 µM on Human ACC1 came to 85%.

Take `CC(=O)NC(C)c1cnc(OCc2c(F)cc(Oc3cccc(OCC4CC4)c3)cc2F)cn1` (centres unmarked) [Example 43, N-(1-(5-((4-(3-(cyclopropylmethoxy)phenoxy)-2,6-difluorobenzyl)oxy)pyrazin-2-yl)ethyl)acetamide]: at Human ACC1, the inhibition at 10 µM came out at 94%. Turning to `CC(=O)NC(C)CCc1cc(-c2ccc(Oc3cccc(OCC4CC4)c3)cc2)no1` (centres unmarked) [Example 46, N-(4-(3-(4-(3-(cyclopropylmethoxy)phenoxy)phenyl)-1,2-oxazol-5-yl)butan-2-yl)acetamide], the inhibition at 1 µM with HCT116 cells amounted to 20%. Further, the inhibition at 10 µM at Human ACC1 turned out to be 95%. In the case of `CC(=O)NC(C)CCc1ccn(-c2ccc(Oc3cccc(OCC4CC4)c3)cc2)n1` (centres unmarked) [Example 48, N-(4-(1-(4-(3-(cyclopropylmethoxy)phenoxy)phenyl)-1H-pyrazol-3-yl)butan-2-yl)acetamide], the inhibition at 1 µM in the assay with HCT116 cells came to 14%. Also, the inhibition at 10 µM at Human ACC1 was determined as 96%. Taken in the same sequence, the figures for `CC(=O)NC(C)CC(=O)c1cnc(-c2ccc(Oc3cccc(OCC4CC4)c3)cc2)o1` (centres unmarked) [Example 64, N-(4-(2-(4-(3-(cyclopropylmethoxy)phenoxy)phenyl)-1,3-oxazol-5-yl)-4-oxobutan-2-yl)acetamide] were 35% and 99%. As for `CC(=O)N[C@@H](C)COc1cc(-c2ccc(Oc3cccc(OCC4CC4)c3)cc2)no1` [Example 67, N-((2S)-1-((3-(4-(3-(cyclopropylmethoxy)phenoxy)phenyl)-1,2-oxazol-5-yl)oxy)propan-2-yl)acetamide], the inhibition at 1 µM in the assay on HCT116 cells was 29%. Besides, at Human ACC1, the inhibition at 10 µM is 92%. For `CC(=O)NC(C)c1ccc(OCc2c(F)cc(Oc3cccc(OCC4CC4)c3)cc2F)nc1` (centres unmarked) [Example 68, N-(1-(6-((4-(3-(cyclopropylmethoxy)phenoxy)-2,6-difluorobenzyl)oxy)pyridin-3-yl)ethyl)acetamide] the same measures were 25% and 96%. Consider `CC(=O)N[C@@H](C)COc1cnc(-c2ccc(Oc3cccc(OCC4CC4)c3)nc2)o1` [Example 99, N-((2S)-1-((2-(6-(3-(cyclopropylmethoxy)phenoxy)pyridin-3-yl)-1,3-oxazol-5-yl)oxy)propan-2-yl)acetamide], for which, on Human ACC1, the inhibition at 10 µM was found to be 100%.

As to `C[C@@H](COc1cnc(-c2ccc(Oc3cccc(OCC4CC4)c3)nc2)o1)NC(N)=O` [Example 101, 1-((2S)-1-((2-(6-(3-(cyclopropylmethoxy)phenoxy)pyridin-3-yl)-1,3-oxazol-5-yl)oxy)propan-2-yl)urea], at Human ACC1, the inhibition at 10 µM came out at 98%. With `CC(=O)N[C@@H](C)COc1cnc(-c2ccc(Oc3cccc(OCC4CC4)c3)cn2)o1` [Example 102, N-((2S)-1-((2-(5-(3-(cyclopropylmethoxy)phenoxy)pyridin-2-yl)-1,3-oxazol-5-yl)oxy)propan-2-yl)acetamide], the inhibition at 10 µM at Human ACC1 came to 100%. Still for that read-out and setting: for `CC(=O)NC(C)CC(=O)c1cnn(-c2ccc(Oc3cccc(OCC4CC4)c3)nc2)c1` (centres unmarked) [Example 103, N-(4-(1-(6-(3-(cyclopropylmethoxy)phenoxy)pyridin-3-yl)-1H-pyrazol-4-yl)-4-oxobutan-2-yl)acetamide] the value was 98%; for `C[C@@H](COc1cnc(-c2ccc(Oc3cccc(OCC4CC4)c3)cn2)o1)NC(N)=O` [Example 104, 1-((2S)-1-((2-(5-(3-(cyclopropylmethoxy)phenoxy)pyridin-2-yl)-1,3-oxazol-5-yl)oxy)propan-2-yl)urea], 95%. In the case of `CC(=O)NC(C)CC(=O)c1cnc(-c2ccc(Oc3cccc(OCC4CC4)c3)nc2)o1` (centres unmarked) [Example 105, N-(4-(2-(6-(3-(cyclopropylmethoxy)phenoxy)pyridin-3-yl)-1,3-oxazol-5-yl)-4-oxobutan-2-yl)acetamide], the inhibition at 10 µM on Human ACC1 was 100%.

In the case of `CC(=O)N[C@@H](C)COc1cnc(-c2cnc(Oc3cccc(OCC4CC4)c3)cc2C)o1` [Example 106, N-((2S)-1-((2-(6-(3-(cyclopropylmethoxy)phenoxy)-4-methylpyridin-3-yl)-1,3-oxazol-5-yl)oxy)propan-2-yl)acetamide], on Human ACC1, the inhibition at 10 µM stood at 98%.
